Results: the supplement of paper PMC10307832

Key:
Assay in all cases: relative viability (nuclei count vs DMSO), 5 days (fraction); higher = more cells survive
[1] = compound: CN[C@@H]1C[C@H]2O[C@@](C)([C@@H]1OC)n1c3ccccc3c3c4c(c5c6ccccc6n2c5c31)C(=O)NC4 [Staurosporine] + CC(C)C[C@H](NC(=O)[C@H](Cc1ccccc1)NC(=O)c1cnccn1)B(O)O [Bortezomib] (partner 0.002 µM)
How it was run: (§1)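 Values are medians from duplicate plates. Each reflects relative viability, defined as the nuclei count of treated wells over that of vehicle wells. Lung cancer cell lines in 1536-well plates were pin-tool dosed one day after seeding with one drug alone or with a fixed anchor-drug dose plus five library-drug doses (not always all listed) in √10 steps, then fixed, stained and imaged at 4× after 5 days.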

Sulindac + Lapatinib = compound: CC1=C(CC(=O)O)c2cc(F)ccc2/C1=C\c1ccc([S+](C)[O-])cc1 [Sulindac] + CS(=O)(=O)CCNCc1ccc(-c2ccc3ncnc(Nc4ccc(OCc5cccc(F)c5)c(Cl)c4)c3c2)o1 [Lapatinib] (partner 2 µM)
How it was run: as §1

Sulindac + Navitoclax = compound: CC1=C(CC(=O)O)c2cc(F)ccc2/C1=C\c1ccc([S+](C)[O-])cc1 [Sulindac] + CC1(C)CCC(c2ccc(Cl)cc2)=C(CN2CCN(c3ccc(C(=O)NS(=O)(=O)c4ccc(N[C@H](CCN5CCOCC5)CSc5ccccc5)c(S(=O)(=O)C(F)(F)F)c4)cc3)CC2)C1 [Navitoclax] (partner 0.5 µM)
How it was run: as §1

[2] = compound: CN[C@@H]1C[C@H]2O[C@@](C)([C@@H]1OC)n1c3ccccc3c3c4c(c5c6ccccc6n2c5c31)C(=O)NC4 [Staurosporine] + C[C@]1(O)C[C@@H](c2nc(-c3ccc4ccc(-c5ccccc5)nc4c3)c3c(N)nccn32)C1 [Linsitinib] (partner 1 µM)
How it was run: as §1

Cell Line	relative viability ([1]; first compound 0.005 µM)	relative viability ([1]; first compound 0.01581 µM)	relative viability ([1]; first compound 0.05 µM)	relative viability ([1]; first compound 0.1581 µM)	relative viability ([1]; first compound 0.5 µM)	relative viability (Sulindac + Lapatinib; first compound 0.08 µM)	relative viability (Sulindac + Lapatinib; first compound 0.253 µM)	relative viability (Sulindac + Lapatinib; first compound 0.8 µM)	relative viability (Sulindac + Lapatinib; first compound 2.53 µM)	relative viability (Sulindac + Lapatinib; first compound 8 µM)	relative viability (Sulindac + Navitoclax; first compound 0.253 µM)	relative viability (Sulindac + Navitoclax; first compound 2.53 µM)	relative viability (Sulindac + Navitoclax; first compound 8 µM)	relative viability ([2]; first compound 0.005 µM)	relative viability ([2]; first compound 0.01581 µM)	relative viability ([2]; first compound 0.05 µM)	relative viability ([2]; first compound 0.1581 µM)	relative viability ([2]; first compound 0.5 µM)	relative viability (Sulindac + Navitoclax; first compound 0.08 µM)	relative viability (Sulindac + Navitoclax; first compound 0.8 µM)
SW 1573	0.712	0.444	0.192	0.101	0.0911	1.11	1.3	1.02	1.1	1.28	1.02	1.09	1.2	0.586	0.449	0.144	0.131	0.107	–	–
LXF-289	0.822	–	0.257	0.122	0.0797	0.956	0.972	0.87	0.919	0.941	0.97	0.999	0.965	0.846	–	0.203	0.1	0.0809	1	0.953
LOU-NH91	0.519	0.461	0.54	0.369	0.374	0.899	0.72	0.682	0.669	0.831	0.772	0.638	0.748	0.979	0.744	0.63	0.365	0.274	0.726	0.552
NCI-H2347	1.21	0.443	0.359	0.413	0.402	0.986	0.95	0.694	0.85	1.06	0.803	0.725	0.862	0.899	0.732	0.402	0.446	0.351	0.821	0.641
NCI-H2009	0.278	0.147	0.165	0.0953	0.0887	1.02	0.949	0.87	0.946	1.05	1.2	1.18	1.34	0.681	0.269	0.216	0.18	0.116	1.21	1.29
HCC-827	0.942	0.874	0.915	0.564	0.582	0.247	0.183	0.192	0.181	0.184	1.02	0.973	1.08	0.992	0.853	0.726	0.769	0.624	1.04	0.997
NCI-H727	0.703	0.354	0.345	0.352	0.158	0.968	0.799	0.767	0.699	1.19	0.385	0.416	0.433	0.225	0.234	0.268	0.277	0.129	0.32	0.381
